Measured values from patent EP0847397B1, “WATER-SOLUBLE C-RING ANALOGUES OF 20 (S)-CAMPTOTHECIN” (DR. REDDY'S RESEARCH FOUNDATION, priority 1996, dated 1997).

Key:
[1] = test system: NCI's 60 human tumor cell line assay; experiment: cells; type: cell-based; details: 60 cell, 48 h, read-out: IC50 (mean GI50 against NCI's 60 human tumor cell line assay)
Experimental: (§1) Each test compound was screened against a battery of 60 human cell lines obtained from eight organs. In a typical procedure, the cell suspensions that were diluted according to the particular cell type and the expected target cell density (5000-40,000 cells per well based on cell growth characteristics) were added into 96-well microtiter plates. Inoculates were allowed a preincubation period of 24h at 37°C. for stabilization. Dilutions at twice the intended test concentrations were added at time zero in 100-µl aliquots to microtiter plate wells. Usually test compounds were evaluated at five 10-fold dilutions. The highest well concentration used in the test is 10^-4M. The cells are then incubated in the presence of drug (the test compound) for further 48h in 5% CO2 atmosphere and 100% humidity. At the end of this time, the adherent cells are fixed to the plate by means of trichloroacetic acid, and after a number of washes, the cell layer is treated with the protein stain Sulforhodamine B. The optical density which is proportional to protein mass, is then read by automated spectrophotometric plate readers at a wavelength of 515 nm. Readings are transferred to a microcomputer and final reports are generated using especially developed software.

[2] = test system: HT 29; experiment: NCI in vitro 60 human tumor cell line assay; type: cell-based; details: Homo sapiens, HT-29, 48 h, read-out: Total Growth Inhibition (TGI)
[3] = test system: H 460; experiment: NCI in vitro 60 human tumor cell line assay; type: cell-based; details: Homo sapiens, NCI-H460, 48 h, read-out: Total Growth Inhibition (TGI)
Experimental: as §1

[4] = test system: H 322M; experiment: NCI in vitro 60 human tumor cell line assay; type: cell-based; details: NCI-H322M, 48 h, read-out: Total Growth Inhibition (TGI)
Experimental: as §1

[5] = test system: HCC 2998; experiment: NCI in vitro 60 human tumor cell line assay; type: cell-based; details: Homo sapiens, HCC 2998, 48 h, read-out: Total Growth Inhibition (TGI)
Experimental: as §1

[6] = test system: HCT 15; experiment: NCI in vitro 60 human tumor cell line assay; type: cell-based; details: HCT-15, 48 h, read-out: Total Growth Inhibition (TGI)
Experimental: as §1

[7] = test system: UO 31; experiment: NCI in vitro 60 human tumor cell line assay; type: cell-based; details: UO-31, 48 h, read-out: Total Growth Inhibition (TGI)
Experimental: as §1

[8] = test system: HOP 92; experiment: NCI in vitro 60 human tumor cell line assay; type: cell-based; details: HOP-92, 48 h, read-out: Total Growth Inhibition (TGI)
[9] = test system: H 226; experiment: NCI in vitro 60 human tumor cell line assay; type: cell-based; details: NCI-H226, 48 h, read-out: Total Growth Inhibition (TGI)
Experimental: as §1

[10] = test system: H 23; experiment: NCI in vitro 60 human tumor cell line assay; type: cell-based; details: NCI-H23, 48 h, read-out: Total Growth Inhibition (TGI)
Experimental: as §1

[11] = test system: H 522; experiment: NCI in vitro 60 human tumor cell line assay; type: cell-based; details: NCI-H522, 48 h, read-out: Total Growth Inhibition (TGI)
Experimental: as §1

[12] = test system: COLO 205; experiment: NCI in vitro 60 human tumor cell line assay; type: cell-based; details: COLO 205, 48 h, read-out: Total Growth Inhibition (TGI)
Experimental: as §1

[13] = test system: HCT 116; experiment: NCI in vitro 60 human tumor cell line assay; type: cell-based; details: HCT-116, 48 h, read-out: Total Growth Inhibition (TGI)
[14] = test system: KM 12; experiment: NCI in vitro 60 human tumor cell line assay; type: cell-based; details: KM12, 48 h, read-out: Total Growth Inhibition (TGI)
Experimental: as §1

[15] = test system: MCF 7/ ADR; experiment: NCI in vitro 60 human tumor cell line assay; type: cell-based; details: Homo sapiens, NCI/ADR-RES, 48 h, read-out: Total Growth Inhibition (TGI)
Experimental: as §1

[16] = test system: MDA-MB-435; experiment: NCI in vitro 60 human tumor cell line assay; type: cell-based; details: MDA-MB-435, 48 h, read-out: Total Growth Inhibition (TGI)
[17] = test system: MDA-N; experiment: NCI in vitro 60 human tumor cell line assay; type: cell-based; details: BREAST, 48h, read-out: Total Growth Inhibition (TGI)
Experimental: (§2) Each test compound was screened against a battery of 60 human cell lines obtained from eight organs. In a typical procedure, the cell suspensions that were diluted according to the particular cell type and the expected target cell density (5000-40,000 cells per well based on cell growth characteristics) were added into 96-well microtiter plates. Inoculates were allowed a preincubation period of 24h at 37°C. for stabilization. Dilutions at twice the intended test concentrations were added at time zero in 100-µl aliquots to microtiter plate wells. Usually test compounds were evaluated at five 10-fold dilutions. The highest well concentration used in the test is 10^-4M. The cells are then incubated in the presence of drug (the test compound) for further 48h in 5% CO2 atmosphere and 100% humidity. At the end of this time, the adherent cells are fixed to the plate by means of trichloroacetic acid, and after a number of washes, the cell layer is treated with the protein stain Sulforhodamine B. The optical density which is proportional to protein mass, is then read by automated spectrophotometric plate readers at a wavelength of 515 nm.

[18] = test system: BT 549; experiment: NCI in vitro 60 human tumor cell line assay; type: cell-based; details: BT-549, 48 h, read-out: Total Growth Inhibition (TGI)
Experimental: as §1

[19] = test system: T 47D; experiment: NCI in vitro 60 human tumor cell line assay; type: cell-based; details: T47D, 48 h, read-out: Total Growth Inhibition (TGI)
Experimental: as §1

[20] = test system: 786-O; experiment: NCI in vitro 60 human tumor cell line assay; type: cell-based; details: 786-0, 48 h, read-out: Total Growth Inhibition (TGI)
Experimental: as §2

[21] = test system: A 498; experiment: NCI in vitro 60 human tumor cell line assay; type: cell-based; details: A498, 48 h, read-out: Total Growth Inhibition (TGI)
Experimental: as §1

[22] = test system: ACHN; experiment: NCI in vitro 60 human tumor cell line assay; type: cell-based; details: 48 h, read-out: Total Growth Inhibition (TGI)
Experimental: as §1

[23] = test system: CAKI; experiment: NCI in vitro 60 human tumor cell line assay; type: cell-based; details: 48 h, read-out: Total Growth Inhibition (TGI)
Experimental: as §1

[24] = test system: RXF 393; experiment: NCI in vitro 60 human tumor cell line assay; type: cell-based; details: RXF 393, 48 h, read-out: Total Growth Inhibition (TGI)
Experimental: as §1

[25] = test system: SN12C; experiment: NCI in vitro 60 human tumor cell line assay; type: cell-based; details: 48 h, read-out: Total Growth Inhibition (TGI)
Experimental: as §1

[26] = test system: KD 488; experiment: In vitro activity against AIDS related Lymphoma (ARL) cell lines (NCI protocol); type: cell-based; details: Homo sapiens, KD 488, ARL cell line
[27] = test system: MCF 7; experiment: NCI in vitro 60 human tumor cell line assay; type: cell-based; details: MCF7, 48 h, read-out: Total Growth Inhibition (TGI)
Experimental: as §1

[28] = test system: HOP 62; experiment: NCI in vitro 60 human tumor cell line assay; type: cell-based; details: HOP-62, 48 h, read-out: Total Growth Inhibition (TGI)
[29] = NCI in vitro 60 human tumor cell line assay; type: cell-based; details: 48 h, read-out: Total Growth Inhibition (TGI)
Experimental: as §1

[30] = test system: MCF7 / ADR / RES; experiment: NCI in vitro 60 human tumor cell line assay; type: cell-based; details: 48 h, read-out: Total Growth Inhibition (TGI)
Experimental: as §1

[31] = result in words, compared with 20(S)-camptothecin; cited from earlier work

SMILES: CC[C@@]1(O)C(=O)OCc2c1cc1n(c2=O)C(OCC(F)(F)F)c2cc3c([N+](=O)[O-])cccc3nc2-1 (stereo partly shown) [Example 28, 9-Nitro-5-trifluoroethoxycamptothecin]
- mean GI50 [1]: 0.46 µM
- IC (TGI) [2]: 7.94 µM
- IC (TGI) [3]: 1.22 µM
- IC (TGI) [4]: 30.2 µM
- IC (TGI) [5]: 7.65 µM
- IC (TGI) [6]: > 30 µM
- IC (TGI) [7]: 1.23 µM
- IC (TGI) [8]: 8.44 µM
- IC (TGI) [9]: 4.3 µM
- IC (TGI) [10]: 0.76 µM
- IC (TGI) [11]: 13 µM
- IC (TGI) [12]: 9.48 µM
- IC (TGI) [13]: 8.01 µM
- IC (TGI) [14]: 27.4 µM
- IC (TGI) [15]: 1.21 µM
- IC (TGI) [16]: 11.4 µM
- IC (TGI) [17]: 13.4 µM
- IC (TGI) [18]: 32 µM
- IC (TGI) [19]: 1.09 µM
- IC (TGI) [20]: 0.85 µM
- IC (TGI) [21]: 1.76 µM
- IC (TGI) [22]: 0.37 µM
- IC (TGI) [23]: 0.75 µM
- IC (TGI) [24]: 15.9 µM
- IC (TGI) [25]: 2.31 µM

SMILES: CCc1c2c(nc3ccccc13)-c1cc3c(c(=O)n1C2OCCO)COC(=O)[C@]3(O)CC (stereo partly shown) [Example 32, 5-(2'-Hydroxyethoxy)-7-ethylcamptothecin]
- IC (TGI) ([26]; 48 h): 2.28 µM
- GI50 [26]: 0.246 µM

SMILES: CC[C@@]1(O)C(=O)OCc2c1cc1n(c2=O)C(OCCOC)c2cc3ccccc3nc2-1 (stereo partly shown) [Example 43, 5-(2'-methoxyethoxy)camptothecin]
- mean GI50 [1]: 2.23 µM
- IC (TGI) [27]: 17.8 µM
- IC (TGI) [2]: 18.9 µM
- IC (TGI) [3]: 14.2 µM
- IC (TGI) [5]: 23.2 µM
- IC (TGI) [28]: 3.92 µM
- IC (TGI) [9]: 6.89 µM
- IC (TGI) [10]: 2.52 µM
- IC (TGI) [12]: 37.3 µM
- IC (TGI) [14]: 41.9 µM
- IC (TGI) [29]: 23.6 µM
- IC (TGI) [30]: 9.3 µM

SMILES: CC=c1c2cc3ccccc3nc2c2cc3c(c(=O)n12)COC(=O)[C@]3(O)CC [formula 11]
- anti-tumor activity [31]: anti-tumor activity comparable to that of 20(S)-camptothecin
